These results are taken from ChEMBL document CHEMBL5442168, “ASAP - In vitro liver microsomal stability” (2024).

Data set [1] is described as follows: Human liver microsomal stability of compound in microsomal protein, PBS buffer pH 7.4, NADPH, glucose-6-phosphate and glucose-6-phosphate dehydrogenase media. Aliquotes were taken at 5 time points and after stopping the reaction, supernatants were analyzed using HPLC coupled with a tandem mass spectrometer. The elimination constant, half-life, and intrinsic clearance are determined as results using linear regression analysis. The assay has been performed by Enamine biological services, Bienta Ltd.The protocol is publicly available: dx.doi.org/10.17504/protocols.io.5qpvokdb9l4o/v1. The format is ADME, microsomes, Microsome. As to conditions: for half-life / microsomal CLint: liver microsomes; for Remaining / Remaining (without cofactor) / CLint / T1/2: microsomes.

A short description of data set [2]: Mouse liver microsomal stability of compound in microsomal protein, PBS buffer pH 7.4, NADPH, glucose-6-phosphate and glucose-6-phosphate dehydrogenase media. Aliquotes were taken at 5 time points and after stopping the reaction, supernatants were analyzed using HPLC coupled with a tandem mass spectrometer. The elimination constant, half-life, and intrinsic clearance are determined as results using linear regression analysis. The assay has been performed by Enamine biological services, Bienta Ltd.The protocol is publicly available: dx.doi.org/10.17504/protocols.io.5qpvokdb9l4o/v1. The format is ADME, microsomes, Microsome. The settings on record: for half-life / microsomal CLint: liver microsomes; for Remaining / Remaining (without cofactor) / CLint / T1/2: microsomes. (Liver microsomes are a subcellular fraction often used to study metabolism.)

Each structure is given as a SMILES string. “And” between values parts separate entries of the source, which are not always exact repeats. Identical values can stand only once.
Throughout, for Remaining (without cofactor): time not given here.
Throughout, for Remaining: time not given here.

One may read the half-life as how long it takes for the measured level to halve. Low readings indicate fast loss, high ones slow loss. Broadly, the microsomal CLint is the rate of metabolic loss divided by the concentration. On to `CC(C)[C@@H](Nc1ncnc2[nH]c(-c3cnn(CCC(N)=O)c3)cc12)c1ccc2c(c1)OCCO2`, for which, in data set [1], the half-life is 16.9 min, the microsomal CLint was 99 µL/min/mg, the Remaining is given as 19% and the “Remaining (without cofactor)” value was 108%. In data set [2], the half-life turned out to be 27.1 min, the intrinsic metabolic clearance (microsomal CLint) is 62 µL/min/mg, the Remaining is listed as 36% and the “Remaining (without cofactor)” value was 106%.

With `O=C(Nc1cccc2c(C(=O)N[C@@H]3c4ccccc4C[C@@H]3C(=O)O)c[nH]c12)NC1CC1`, in data set [1], the half-life stood at 280 min, the intrinsic clearance (microsomal CLint) is 6 µL/min/mg, the Remaining was determined as 88% and the “Remaining (without cofactor)” value amounted to 86%. Also, in data set [2], the half-life amounted to 454 min, the microsomal CLint is 4 µL/min/mg, the Remaining came out at 95% and the “Remaining (without cofactor)” value amounted to 105%.

On to `CC(C)[C@H](Nc1ncnc2[nH]c(-c3cnn(CC(N)=O)c3)cc12)c1ccc2c(c1)OCCO2`, for which, in data set [1], the half-life was determined as 35.4 min, the microsomal CLint stood at 47 µL/min/mg, the Remaining is listed as 43% and the “Remaining (without cofactor)” value is on record as 102%. For the same molecule, in data set [2], the half-life was 104 min, the microsomal CLint turned out to be 16 µL/min/mg, the Remaining is reported as 80% and the “Remaining (without cofactor)” value was 104%.

`CC(C)[C@@H](Nc1ncnc2[nH]c(-c3ccc4cncn4c3)cc12)c1ccc2c(c1)S(=O)(=O)CCC2`: in data set [1], the half-life was determined as 8 min, the microsomal CLint was 210 µL/min/mg, the Remaining is given as 4% and the “Remaining (without cofactor)” value turned out to be 97%. In data set [2], the half-life was determined as 9.8 min, the microsomal CLint came out at 170 µL/min/mg, the Remaining is recorded as 6% and the “Remaining (without cofactor)” value was 87%.

On to `COc1ccc([C@@H](NC(=O)c2[nH]cnc3nccc2-3)C(C)c2nnn[nH]2)cc1` (some centres undefined), for which, in data set [1], the half-life is 799 min, the intrinsic metabolic clearance (microsomal CLint) turned out to be 2 µL/min/mg, the Remaining is 92% and the “Remaining (without cofactor)” value was 103%. In addition, in data set [2], the half-life was 2880 min, the intrinsic clearance (microsomal CLint) was found to be 1 µL/min/mg, the Remaining was 99% and the “Remaining (without cofactor)” value turned out to be 92%.

`CNC(=O)c1c[nH]c2ncnc(N[C@H](c3ccc4c(c3)S(=O)(=O)CCC4)C(C)C)c12`: in data set [1], the half-life is 6.5 min, the intrinsic metabolic clearance (microsomal CLint) was found to be 258 µL/min/mg, the Remaining is 1% and the “Remaining (without cofactor)” value worked out at 94%. Besides, in data set [2], the half-life was 2.2 min, the microsomal CLint came to 770 µL/min/mg, the Remaining is on record as 0% and the “Remaining (without cofactor)” value is recorded as 99%.

On to `CC(C)[C@@H](Nc1ncnc2[nH]c(-c3cnn(C)c3)cc12)c1ccc2c(c1)S(=O)(=O)CCC2`, for which, in data set [1], the CLint was 141 µL/min/mg and 405 µL/min/mg; the Remaining was 10% and 0%; the “Remaining (without cofactor)” value was 102% and 105%; the T1/2 is 11.9 min and 4.1 min. In data set [2], the half-life turned out to be 10.8 min; the microsomal CLint came to 155 µL/min/mg; the CLint was found to be 140 µL/min/mg; the Remaining was 7% and 10%. For the same molecule, in data set [2], the “Remaining (without cofactor)” value is 102% and the T1/2 came to 11.9 min.

Turning to `COc1ccc([C@@H](Cc2nnn[nH]2)NC(=O)c2ncnc3[nH]ccc23)cc1`, in data set [1], the half-life came to 314 min, the intrinsic clearance (microsomal CLint) is 5 µL/min/mg, the Remaining is on record as 86% and the “Remaining (without cofactor)” value came out at 110%. In addition, in data set [2], the half-life was found to be 4400 min, the Remaining is on record as 96% and the “Remaining (without cofactor)” value turned out to be 93%.

Consider `CC(C)[C@@H](Nc1ncnc2[nH]c(-c3cnn(CC(=O)N(C)C)c3)cc12)c1ccc2c(c1)OCCO2`, for which, in data set [1], the half-life came out at 11.8 min; the intrinsic metabolic clearance (microsomal CLint) is 142 µL/min/mg; the CLint was 108 µL/min/mg; the Remaining was 9% and 18%. In addition, in data set [1], the “Remaining (without cofactor)” value was 110% and 114%; the T1/2 is given as 15.4 min. In addition, in data set [2], the half-life was determined as 28.1 min; the intrinsic metabolic clearance (microsomal CLint) turned out to be 59 µL/min/mg; the CLint worked out at 45 µL/min/mg; the Remaining was 39% and 48%. Besides, in data set [2], the “Remaining (without cofactor)” value was 98% and 114%; the T1/2 amounted to 36.8 min.

As for `CC(C)[C@@H](Nc1ncnc2[nH]c(-c3cnn(CC(=O)N(C)C)c3)cc12)c1ccc2c(c1)S(=O)(=O)CCC2`, in data set [1], the CLint was 106 µL/min/mg and 297 µL/min/mg; the “Remaining (without cofactor)” value is 92% and 99%; the T1/2 is 15.8 min and 5.6 min. For the same molecule, in data set [2], the CLint is 68 µL/min/mg and 31 µL/min/mg; the Remaining was 31% and 59%; the “Remaining (without cofactor)” value was 92% and 102%; the T1/2 is 24.6 min and 53.8 min.

As for `CNC(=O)Cn1cc(-c2cc3c(N[C@@H](c4ccc5c(c4)S(=O)(=O)CCC5)C(C)C)ncnc3[nH]2)cn1`, in data set [1], the CLint was 94 µL/min/mg and 237 µL/min/mg; the “Remaining (without cofactor)” value was 96% and 89%; the T1/2 is 17.7 min and 7 min. In addition, in data set [2], the half-life came to 21.6 min; the intrinsic metabolic clearance (microsomal CLint) was determined as 77 µL/min/mg; the CLint amounted to 44 µL/min/mg; the Remaining is 26% and 48%. In data set [2], the “Remaining (without cofactor)” value is 103% and 90%; the T1/2 is on record as 37.8 min.

For the molecule `CCNC(=O)c1cc2c(N[C@@H](c3ccc4c(c3)S(=O)(=O)CCO4)C(C)C)ncnc2[nH]1`, in data set [1], the half-life was 26.2 min, the microsomal CLint turned out to be 64 µL/min/mg, the Remaining is 33% and the “Remaining (without cofactor)” value is on record as 95%. For the same molecule, in data set [2], the half-life was found to be 65.5 min, the microsomal CLint is 26 µL/min/mg, the Remaining was found to be 66% and the “Remaining (without cofactor)” value was 99%.

For the molecule `CC(C)[C@@H](Nc1ncnc2[nH]cc(C(=O)NC3CC3)c12)c1ccc2c(c1)S(=O)(=O)CCC2`, in data set [1], the “Remaining (without cofactor)” value was 90% and 111%. Besides, in data set [2], the Remaining was 2% and 0%; the “Remaining (without cofactor)” value was 101% and 102%.

Consider `CC(C)[C@@H](Nc1ncnc2[nH]c(-c3cnn(C)c3)cc12)c1ccc2c(c1)S(=O)(=O)NCC2`, for which, in data set [1], the half-life amounted to 13.9 min, the intrinsic clearance (microsomal CLint) came to 120 µL/min/mg, the Remaining was found to be 13% and the “Remaining (without cofactor)” value is 98%. Moreover, in data set [2], the half-life was found to be 19.1 min, the microsomal CLint was found to be 87 µL/min/mg, the Remaining amounted to 23% and the “Remaining (without cofactor)” value worked out at 92%.

For the molecule `CNC(=O)c1c[nH]c2ncnc(N[C@@H](c3ccc4c(c3)S(=O)(=O)CCC4)C(C)C)c12`, in data set [1], the half-life came to 12.8 min; the microsomal CLint was 131 µL/min/mg; the CLint is 108 µL/min/mg; the Remaining is 11% and 17%. Further, in data set [1], the “Remaining (without cofactor)” value is 104% and 94%; the T1/2 was 15.4 min. Besides, in data set [2], the half-life turned out to be 8.7 min; the intrinsic clearance (microsomal CLint) was 192 µL/min/mg; the CLint turned out to be 113 µL/min/mg; the “Remaining (without cofactor)” value was 92% and 108%. This molecule yielded a T1/2 in data set [2] of 14.7 min.

In the case of `Cn1ncc(-c2cc3c(N[C@@H](c4ccc5c(n4)OCCO5)C(C)(C)C)ncnc3[nH]2)c1C#N`, the “Remaining (without cofactor)” value in data set [1] was 91% and 108% and 85%. For the same molecule, in data set [2], the half-life is 8 min; the intrinsic clearance (microsomal CLint) worked out at 209 µL/min/mg; the CLint is 188 µL/min/mg and 226 µL/min/mg; the Remaining was 4% and 5% and 2%. Also, in data set [2], the “Remaining (without cofactor)” value was 101% and 106% and 94%; the T1/2 is 8.9 min and 7.4 min.

`CCNC(=O)c1cc2c(N[C@H](c3ccc4c(c3)OCCO4)C(C)C)ncnc2[nH]1`: in data set [1], the half-life came out at 24.8 min, the intrinsic clearance (microsomal CLint) was 67 µL/min/mg, the Remaining is given as 32% and the “Remaining (without cofactor)” value turned out to be 100%. Moreover, in data set [2], the half-life came out at 34.6 min, the microsomal CLint stood at 48 µL/min/mg, the Remaining is 47% and the “Remaining (without cofactor)” value is recorded as 94%.

As for `CC(C)[C@@H](Nc1ncnc2[nH]c(-c3cnn(CC(N)=O)c3)cc12)c1ccc2c(c1)OCCO2`, in data set [1], the CLint was 99 µL/min/mg and 238 µL/min/mg; the “Remaining (without cofactor)” value was 103% and 90%; the T1/2 is 16.9 min and 7 min. For the same molecule, in data set [2], the half-life was 41.1 min; the microsomal CLint came to 41 µL/min/mg; the CLint turned out to be 42 µL/min/mg; the Remaining was 54% and 49%. In data set [2], the “Remaining (without cofactor)” value is 87% and 98%; the T1/2 is 40 min.

As for `CC(C)[C@@H](Nc1ncnc2[nH]c(-c3cnn(C)c3C#N)cc12)c1ccc2c(c1)S(=O)(=O)CCC2`, in data set [1], the half-life was determined as 3.4 min; the intrinsic clearance (microsomal CLint) amounted to 490 µL/min/mg; the CLint amounted to 516 µL/min/mg; the Remaining was 1% and 0%. Besides, in data set [1], the “Remaining (without cofactor)” value is 94% and 101%; the T1/2 stood at 3.2 min. In data set [2], this molecule showed a half-life of 3.8 min, a microsomal CLint of 440 µL/min/mg, a CLint of 709 µL/min/mg and a Remaining of 0%. In data set [2], the “Remaining (without cofactor)” value is 96% and 106%; the T1/2 is 2.4 min.
